The target of assay [1] is T1, LRRK2 WT (Homo sapiens, UniProt Q5S007). In words: Cellular phospho-LRRK2 S935 HTRF assay, WT-HEK293 cells. The format is cell-based. The following applies: pS935 LRRK2 Cellular Activity Assay; HEK293 cells stably expressing human LRRK2 WT, 2 hr incubation. The text has this:
This method utilizes two antibodies, europium-Cryptate (donor) antibody and d2-Cryptate (acceptor) antibody, specifically binding to total and phospho S935 of LRRK2, respectively. When two fluorophores are in close proximity, i.e. activation of kinase, time-resolved fluorescence energy transfer (TR-FRET) occurs where a light source excites europium donor, the 615 nm emission by europium then excites d2 acceptor. […] All cell culture reagents were purchased from Life Technologies, and phospho-LRRK2 S935 assay reagents were from Perkin Elmer (#6FLRKPEH). Briefly, the day before the assay, the cells (5,000 cells/20 μL/well) are prepared in the plating medium (growth medium without G418). […] The activities of inhibitors at WT and GS mutant are measured in separate cell plates.
For full enzyme control and maximum enzyme inhibition wells, 600 nL of DMSO and 0.2 mM MLi-2 were transferred, respectively. The final 2× compound plate is prepared by adding 60 μL of plating medium to each well. […] Compounds are incubated for 2 hrs in 37° C. humidified incubators.
During compound incubation, 4× lysis buffer and 100× blocking buffer are diluted to 1× with H2O. After 2 hr incubation, treatment medium is removed using an ELx405 Microplate washer (Agilent), and 16 μL of lysis/blocking buffer is immediately added to each well in entire plates. The plates are sealed with a plate seal, and placed on a plate shaker for 30 min at room temperature with shaking at 200 rpm.
During the lysis step, 1× antibody working solutions are prepared by diluting 40× Eu-Cryptate antibody and d2-antibody in detection buffer. After the cell plates are spun at 100×g for 1 min, 4 μL of antibody solutions is added to each well in entire plates. The plates are sealed with a plate seal, and placed on a plate shaker for 4 hrs at room temperature with shaking at 200 rpm.
Background: Time-resolved FRET reads energy transfer from a long-lived donor to a nearby acceptor.

The target of assay [2] is T1, LRRK2 WT. In words: Biochemical LRRK2 LanthaScreen TR-FRET kinase assay, wild type.
Protocol: The in-vitro LRRK2 wild type (WT) and G2019S (GS) mutant enzyme activities are assessed for their abilities to phosphorylate a peptide substrate using the LanthaScreen™ (Thermo Fisher) Time-Resolved Fluorescence Energy Transfer (TR-FRET) kinase assay format. The kinase reaction is composed of purified human LRRK2 WT or GS enzymes, a fluorescein labelled peptide substrate (LRRKtide), and ATP. Subsequently, the resulting phosphorylated LRRKtide is recognized by a Terbium-labelled antibody that specifically binds only to the phosphorylated form of LRRKtide. […] In detail, when the phosphorylated LRRKtide is bound to the Terbium (donor) labelled antibody, the FRET signal measured with a 495 nm filter specific to Terbium induces the excitation of the fluorescein (acceptor) of the phosphorylated LRRKtide. Then, this leads to the FRET emission signal measured with a 520 nm filter specific to fluorescein.
The newly synthesized LRRK2 inhibitors are evaluated for their abilities to block phosphorylation of the LRRKtide substrate by WT and GS mutant enzymes. The level of phosphorylation inhibition is proportional to the level of FRET ratio decrease. […] Each assay plate also includes 3 reference controls; (1) full kinase activity control wells containing 1% DMSO vehicle, (2) maximum kinase inhibition control wells containing 1 μM MLi-2, well-known LRRK2 inhibitor, and (3) no enzyme control wells serving as assay background level that should match to the maximum enzyme inhibition level by a 1 M MLi-2 control.
Inhibitors (1 mM stock solution in DMSO) are serially diluted 1:4 into 11 point concentration response curves in DMSO using the Bravo Liquid Handler (Agilent). […] Therefore, the final concentration of 11 point dose response curves of inhibitors ranges from 10 μM to 0.01 nM. For both full enzyme control and no enzyme control wells, 100 nL DMSO is added. For maximum enzyme inhibition wells, 100 nL of 0.1 mM MLi-2 is added.
Next, LRRK2 enzymes, substrate, and ATP are diluted as 2× in 1× kinase buffer (50 mM Tris, pH 8.5, 5 mM MgCl2, 1 mM EGTA, 0.01% BRIJ-35, 2 mM DTT). First, the purified human LRRK2 enzymes are diluted to 6 nM (2×) in a 5 μL volume per well. After adding the WT proteins (Thermo Fisher, cat #PR8604B) and GS mutant proteins (Thermo Fisher, cat #PR8764C) to separate assay plates containing inhibitors/DMSO, the plates are spun down at 100×g for 1 min and placed on a plate shaker with gentle shaking at 50 rpm to incubate enzyme with inhibitors/DMSO at 25° C. for 15 min. The kinase buffer alone (5 μL/well) is added to the no enzyme control wells. Secondly, LRRKtide substrate (Thermo Fisher #PV4901) and ATP (Thermo Fisher #PV3227) are diluted to 2× (0.4 M and 50 μM, respectively) in a 5 μL volume per well. Immediately after the 15 min enzyme incubation, 5 μL of LRRKtide and ATP mixtures are added to entire plates. The plates are spun down at 100×g for 1 min, and covered with a black lid to protect from light. Kinase reaction is allowed at 25° C. for 120 mins with gentle shaking at 50 rpm.
The kinase reaction is immediately stopped by adding 10 μL of 2× TR-FRET detection solution to entire plates. The plates were spun down at 100×g for 1 min, and covered with a black lid to protect from light. The TR-FRET detection reaction was allowed at 25° C. for 30 mins with gentle shaking at 50 rpm.
All ratio data are then normalized to % enzyme activity. Curve fitting and potencies (IC50) of the inhibitors are determined using a four-parameter logistical equation using GraphPad Prism (La Jolla, CA).

The structures appear in SMILES notation.

T1 sequence (Q5S007 whole entry): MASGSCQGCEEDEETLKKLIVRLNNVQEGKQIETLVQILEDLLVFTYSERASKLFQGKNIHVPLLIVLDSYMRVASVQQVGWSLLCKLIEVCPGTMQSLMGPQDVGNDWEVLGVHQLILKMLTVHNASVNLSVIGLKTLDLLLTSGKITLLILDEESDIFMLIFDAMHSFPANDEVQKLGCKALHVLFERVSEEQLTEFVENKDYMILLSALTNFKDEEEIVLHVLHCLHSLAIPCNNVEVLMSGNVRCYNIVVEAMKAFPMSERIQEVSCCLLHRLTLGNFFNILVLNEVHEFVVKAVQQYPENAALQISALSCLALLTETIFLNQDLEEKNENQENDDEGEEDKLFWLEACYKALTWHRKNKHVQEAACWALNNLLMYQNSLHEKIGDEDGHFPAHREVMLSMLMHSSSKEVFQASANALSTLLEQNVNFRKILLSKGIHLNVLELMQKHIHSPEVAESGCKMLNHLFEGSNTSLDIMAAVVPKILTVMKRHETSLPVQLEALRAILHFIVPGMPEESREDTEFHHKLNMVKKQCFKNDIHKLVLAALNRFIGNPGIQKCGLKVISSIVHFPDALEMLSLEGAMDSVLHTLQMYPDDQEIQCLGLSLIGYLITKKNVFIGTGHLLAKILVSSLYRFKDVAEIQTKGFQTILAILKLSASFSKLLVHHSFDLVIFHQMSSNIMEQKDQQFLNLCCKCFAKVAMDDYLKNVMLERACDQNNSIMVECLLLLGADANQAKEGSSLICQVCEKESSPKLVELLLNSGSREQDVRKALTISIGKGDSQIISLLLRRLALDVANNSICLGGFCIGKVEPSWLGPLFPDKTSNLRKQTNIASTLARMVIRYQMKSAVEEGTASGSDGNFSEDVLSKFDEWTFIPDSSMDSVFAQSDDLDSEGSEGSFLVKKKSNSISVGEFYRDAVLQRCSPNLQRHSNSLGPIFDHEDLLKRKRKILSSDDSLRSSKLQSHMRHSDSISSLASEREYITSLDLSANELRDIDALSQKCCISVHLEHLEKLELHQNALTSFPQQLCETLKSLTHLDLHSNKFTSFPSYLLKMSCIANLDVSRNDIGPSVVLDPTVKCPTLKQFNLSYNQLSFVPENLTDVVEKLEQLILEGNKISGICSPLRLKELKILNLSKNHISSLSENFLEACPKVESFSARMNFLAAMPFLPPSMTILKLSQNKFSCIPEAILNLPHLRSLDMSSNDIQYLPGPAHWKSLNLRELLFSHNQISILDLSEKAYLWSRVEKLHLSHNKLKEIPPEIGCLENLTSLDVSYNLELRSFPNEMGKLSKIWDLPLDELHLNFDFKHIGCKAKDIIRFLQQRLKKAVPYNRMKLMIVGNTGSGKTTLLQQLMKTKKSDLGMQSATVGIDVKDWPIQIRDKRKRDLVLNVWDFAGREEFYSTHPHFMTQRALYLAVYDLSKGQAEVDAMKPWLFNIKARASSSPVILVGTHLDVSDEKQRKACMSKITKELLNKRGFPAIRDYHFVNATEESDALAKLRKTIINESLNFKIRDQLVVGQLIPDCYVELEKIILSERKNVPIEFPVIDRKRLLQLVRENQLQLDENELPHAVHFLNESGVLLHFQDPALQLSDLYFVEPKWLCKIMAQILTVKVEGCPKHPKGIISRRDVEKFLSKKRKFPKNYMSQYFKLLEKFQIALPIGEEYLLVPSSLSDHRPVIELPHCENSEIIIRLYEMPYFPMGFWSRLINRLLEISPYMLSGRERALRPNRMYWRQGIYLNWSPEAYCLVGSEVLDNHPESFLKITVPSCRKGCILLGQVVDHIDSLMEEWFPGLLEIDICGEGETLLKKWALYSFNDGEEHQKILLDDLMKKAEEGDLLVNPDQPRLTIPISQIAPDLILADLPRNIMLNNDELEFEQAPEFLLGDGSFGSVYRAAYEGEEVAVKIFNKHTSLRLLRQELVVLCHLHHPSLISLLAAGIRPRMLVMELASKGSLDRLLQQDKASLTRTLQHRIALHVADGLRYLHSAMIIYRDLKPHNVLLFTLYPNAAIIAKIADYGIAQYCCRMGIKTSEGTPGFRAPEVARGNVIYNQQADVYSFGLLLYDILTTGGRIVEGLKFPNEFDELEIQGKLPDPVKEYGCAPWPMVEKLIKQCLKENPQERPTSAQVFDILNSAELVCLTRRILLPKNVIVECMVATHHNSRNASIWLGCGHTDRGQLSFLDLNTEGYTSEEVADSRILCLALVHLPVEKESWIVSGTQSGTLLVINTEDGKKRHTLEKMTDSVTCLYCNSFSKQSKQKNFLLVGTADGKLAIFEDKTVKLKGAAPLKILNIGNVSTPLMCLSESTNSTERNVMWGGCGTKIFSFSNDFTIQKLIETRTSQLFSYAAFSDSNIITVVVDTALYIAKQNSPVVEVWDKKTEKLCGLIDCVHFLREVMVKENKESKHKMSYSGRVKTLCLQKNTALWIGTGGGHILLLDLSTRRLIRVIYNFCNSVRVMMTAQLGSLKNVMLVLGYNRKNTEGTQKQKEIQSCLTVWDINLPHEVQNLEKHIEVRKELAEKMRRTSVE

Usually IC50 stands for the concentration needed to halve the response being measured. For `Cc1cc2cnn(-c3cnn(C)c3)c2cc1C1=C[C@@H]2CN(C(=O)OC(C)(C)C)C[C@@H]2C1` (racemic) [Compound 2, (rac)-tert-butyl (3aR,6aS)-5-(5-methyl-1-(1-methyl-1H-pyrazol-4-yl)-1H-indazol-6-yl)-3,3a,4,6a-tetrahydrocyclopenta[c] pyrrole-2(1H)-carboxylate], the “LRRK2 WT IC50” value at LRRK2 WT [1] was “inactive”. On LRRK2 WT [2], this molecule displayed an IC50 of 2.29 µM.
Turning to `Cc1cc2cnn(-c3cnn(C)c3)c2cc1C1=C[C@@H]2CNC[C@@H]2C1` (racemic) [Compound 1, (rac)-6-((3aR,6aS)-1,2,3,3a,4,6a-hexahydrocyclopenta[c]pyrrol-5-yl)-5-methyl-1-(1-methyl-1H-pyrazol-4-yl)-1H-indazole], the IC50 is 7.58 µM at LRRK2 WT [1] and 0.113 µM on LRRK2 WT [2].
On to `Cc1cc2cnn(-c3cnn(C)c3)c2cc1[C@@H]1C[C@@H]2CN(C(=O)c3snnc3C)C[C@@H]2C1` [Compound 10, (4-methyl-1,2,3-thiadiazol-5-yl)((3aR,5r,6aS)-5-(5-methyl-1-(1-methyl-1H-pyrazol-4-yl)-1H-indazol-6-yl)hexahydrocyclopenta[c]pyrrol-2(1H)-yl)methanone], for which the “LRRK2 WT IC50” value at LRRK2 WT [1] was “inactive”. Further, at LRRK2 WT [2], the half-inhibitory concentration (IC50) turned out to be 0.643 µM.
On the same counts, the results for `Cc1cc2cnn(-c3cnn(C)c3)c2cc1[C@@H]1C[C@@H]2CN(C3CCCOC3)C[C@@H]2C1` (mixture of isomers) [Compound 12, (rac)-5-methyl-1-(1-methyl-1H-pyrazol-4-yl)-6-((3aR,5r,6aS)-2-(tetrahydro-2H-pyran-3-yl)octahydrocyclopenta[c]pyrrol-5-yl)-1H-indazole] are “inactive” and 0.642 µM.
As for `Cc1cc2cnn(-c3cnn(C)c3)c2cc1[C@H]1C[C@@H]2CN(C(=O)c3snnc3C)C[C@@H]2C1` [Compound 9, (4-methyl-1,2,3-thiadiazol-5-yl)((3aR,5s,6aS)-5-(5-methyl-1-(1-methyl-1H-pyrazol-4-yl)-1H-indazol-6-yl)hexahydrocyclopenta[c]pyrrol-2(1H)-yl)methanone], the IC50 at LRRK2 WT [1] was 8.43 µM; on LRRK2 WT [2], 0.156 µM.
As for `COC(=O)N1CCCC(N2C[C@H]3C[C@H](c4cc5c(cnn5-c5cnn(C)c5)cc4C)C[C@H]3C2)C1` (mixture of isomers) [Compound 18, (rac)-methyl 3-((3aR,5s,6aS)-5-(5-methyl-1-(1-methyl-1H-pyrazol-4-yl)-1H-indazol-6-yl)hexahydrocyclopenta[c]pyrrol-2(1H)-yl)piperidine-1-carboxylate], on LRRK2 WT [1], the “LRRK2 WT IC50” value is “inactive”. Also, half-maximal inhibition on LRRK2 WT [2] (IC50) was put at 1.53 µM.
In the case of `Cc1cc2cnn(-c3cnn(C)c3)c2cc1[C@H]1C[C@@H]2CN(C3CCCOC3)C[C@@H]2C1` (mixture of isomers) [Compound 11, (rac)-5-methyl-1-(1-methyl-1H-pyrazol-4-yl)-6-((3aR,5s,6aS)-2-(tetrahydro-2H-pyran-3-yl)octahydrocyclopenta[c]pyrrol-5-yl)-1H-indazole], the figures for the IC50 against LRRK2 WT [1] and on LRRK2 WT [2] were 4.34 µM and 0.247 µM, respectively.
On the same counts, the results for `Cc1cc2cnn(-c3cnn(C)c3)c2cc1C1=C[C@@H]2CN(C3CCOCC3)C[C@@H]2C1` (racemic) [Compound 3, (rac)-5-methyl-1-(1-methyl-1H-pyrazol-4-yl)-6-((3aR,6aS)-2-(tetrahydro-2H-pyran-4-yl)-1,2,3,3a,4,6a-hexahydrocyclopenta[c]pyrrol-5-yl)-1H-indazole] are greater than 10 µM and 0.716 µM.
With `COC(=O)N1CCCC(N2C[C@H]3C[C@@H](c4cc5c(cnn5-c5cnn(C)c5)cc4C)C[C@H]3C2)C1` (mixture of isomers) [Compound 19, (rac)-methyl 3-((3aR,5r,6aS)-5-(5-methyl-1-(1-methyl-1H-pyrazol-4-yl)-1H-indazol-6-yl)hexahydrocyclopenta[c]pyrrol-2(1H)-yl)piperidine-1-carboxylate], the “LRRK2 WT IC50” value at LRRK2 WT [1] was “inactive”. At LRRK2 WT [2], this molecule showed an IC50 of 1.22 µM.

(Values after patent US20260232636A1, “INHIBITORS OF LRRK2” (Vanderbilt University, priority 2023, published 2026).)
